# Experimental data: patent US6376666B1 (Nauchno-Issledovatelsky Institut Farmakologii Rossiiskoi …, priority 1994, dated 2002)
# Key:
# [1] = system: Balb/c mice; assay: open-field test, Balb/c mice (passive type of emotional-stress reaction); format: in vivo; set-up: key to Total activity: sum of all locomotor activity counts (crossings + rearings) in 3 min
# In short: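 Male mice, 20-22 g, dosed i.p. in water 30 min before a 3-min open-field test after 1 min in darkness; peripheral, central, rearing and total activity plus defecations recorded; Student t-test. Anxiolysis read as Balb/c activation, sedation as C57B1/6 inhibition.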
# [2] = system: cats; assay: hemodynamics and activity of intact heart in cats under anesthesia; format: in vivo; settings: for Cardiac volume, change from basal level / Heart rate, change from basal level / Mean blood flow accelaration (aortic), change from basal level / Mean blood pressure, change from basal level / Stroke volume, change from basal level: cats
# Description: The effects of compounds on the hemodynamics and activity of intact heart were studied in cats under anesthesia. The experiments were carried out under conditions of open chest. The phase curve of aortic blood flow was the main index of cardiac activity. The compounds were administered i.v. in physiological solution. The t-Student' test was used to estimate the statistical significance.
# [3] = 0.1 mg/kg i.p., M ± mx, 0.1 mg/kg
# [4] = 1.0 mg/kg i.p., M ± mx, 1 mg/kg
# [5] = 10.0 mg/kg i.p., M ± mx, 10 mg/kg
# [6] = 0.5 mg/kg i.v., after injection
# [7] = 1.0 mg/kg i.v., after injection
smiles,measurement,setting,value
"CCOc1ccc2nc(SCCN(CC)CC)[nH]c2c1 [Compound IX, 2-[2-(Diethylamino)ethylthio]-5-ethoxybenz-imidazole]",Number of defecations,"[1]; 0.1 mg/kg i.p., M ± mx",0.1 ± 0.1
same,Peripheral activity (crossings),[1]; [3],15.1 ± 9.0
same,Total activity,[1]; [3],15.1 ± 9.0
same,Peripheral activity (crossings),[1]; [4],39.8 ± 7.3
same,Total activity,[1]; [4],39.8 ± 7.3
same,Peripheral activity (crossings),"[1]; 5.0 mg/kg i.p., M ± mx",44.1 ± 10.2
same,Total activity,"[1]; 5.0 mg/kg i.p., M ± mx",44.1 ± 10.2
same,Peripheral activity (crossings),[1]; [5],36.8 ± 5.0
same,Total activity,[1]; [5],36.8 ± 5.0
same,Peripheral activity (crossings),"[1]; 20.0 mg/kg i.p., M ± mx",17.8 ± 5.5
same,Total activity,"[1]; 20.0 mg/kg i.p., M ± mx",17.8 ± 5.5
same,"effect on the behavior (locomotor activity) of Balb/c mice in open-field test, in words","[1]; i.p., screening",able to activate the behavior of Balb/c mice
same,"effect on contractile function of heart, in words","[2]; cats i.v., same doses as bradycardia",slightly enhanced the contractility of myocardium
same,duration of bradycardia after administration,"[2]; cats i.v., VIII 1,0, IX 0,5 and 1,0, XX 1,0 and 2,0 mg/kg",30 min
same,"effect on heart rate, in words","[2]; cats i.v., VIII 1,0, IX 0,5 and 1,0, XX 1,0 and 2,0 mg/kg, XXIII 1.0, verapamil 0.5 mg/kg",expressed bradycardia
same,"Cardiac volume, change from basal level","[2]; 0.5 mg/kg i.v., after 2 min",−3.5 ± 6.0%
same,"Heart rate, change from basal level","[2]; 0.5 mg/kg i.v., after 2 min",−11.6 ± 2.8 %
same,"Mean blood flow accelaration (aortic), change from basal level","[2]; 0.5 mg/kg i.v., after 2 min",+11.0 ± 8.8%
same,"Mean blood pressure, change from basal level","[2]; 0.5 mg/kg i.v., after 2 min",+4.4 ± 4.7%
same,"Stroke volume, change from basal level","[2]; 0.5 mg/kg i.v., after 2 min",+9.4 ± 6.5%
same,"Cardiac volume, change from basal level","[2]; 0.5 mg/kg i.v., after 5 min",−1.7 ± 4.8%
same,"Mean blood flow accelaration (aortic), change from basal level","[2]; 0.5 mg/kg i.v., after 5 min",+0.6 ± 4.9%
same,"Mean blood pressure, change from basal level","[2]; 0.5 mg/kg i.v., after 5 min",−5.4 ± 2.3%
same,"Stroke volume, change from basal level","[2]; 0.5 mg/kg i.v., after 5 min",+5.6 ± 5.6%
same,"Cardiac volume, change from basal level","[2]; 0.5 mg/kg i.v., after 10 min",−4.2± 2.1%
same,"Heart rate, change from basal level","[2]; 0.5 mg/kg i.v., after 10 min",−7.3 ± 1.6 %
same,"Mean blood flow accelaration (aortic), change from basal level","[2]; 0.5 mg/kg i.v., after 10 min",+3.0 ± 4.0%
same,"Mean blood pressure, change from basal level","[2]; 0.5 mg/kg i.v., after 10 min",−1.2 ± 3.6%
same,"Stroke volume, change from basal level","[2]; 0.5 mg/kg i.v., after 10 min",+3.6 ± 3.0%
same,"Cardiac volume, change from basal level","[2]; 0.5 mg/kg i.v., after 20 min",−6.1 ± 3.4%
same,"Heart rate, change from basal level","[2]; 0.5 mg/kg i.v., after 20 min",−4.5 ± 2.2%
same,"Mean blood flow accelaration (aortic), change from basal level","[2]; 0.5 mg/kg i.v., after 20 min",+5.6 ± 5.1%
same,"Mean blood pressure, change from basal level","[2]; 0.5 mg/kg i.v., after 20 min",−4.1 ± 4.8%
same,"Stroke volume, change from basal level","[2]; 0.5 mg/kg i.v., after 20 min",−0.7 ± 4.0%
same,"Cardiac volume, change from basal level","[2]; 0.5 mg/kg i.v., after 30 min",−2.8 ± 7.8%
same,"Heart rate, change from basal level","[2]; 0.5 mg/kg i.v., after 30 min",−5.3 ± 2.3%
same,"Mean blood flow accelaration (aortic), change from basal level","[2]; 0.5 mg/kg i.v., after 30 min",+1.8 ± 5.8%
same,"Mean blood pressure, change from basal level","[2]; 0.5 mg/kg i.v., after 30 min",−4.9 ± 6.5%
same,"Stroke volume, change from basal level","[2]; 0.5 mg/kg i.v., after 30 min",+1.8 ± 9.3%
same,"Cardiac volume, change from basal level",[2]; [6],+6.5 ± 2.8%
same,"Heart rate, change from basal level",[2]; [6],−8.0 ± 3.5%
same,"Mean blood flow accelaration (aortic), change from basal level",[2]; [6],+8.8 ± 5.8%
same,"Mean blood pressure, change from basal level",[2]; [6],−2.1 ± 3.0%
same,"Stroke volume, change from basal level",[2]; [6],+17.0 ± 5.5 %
same,"Cardiac volume, change from basal level","[2]; 1.0 mg/kg i.v., after 2 min",+2.2 ± 3.5%
same,"Heart rate, change from basal level","[2]; 1.0 mg/kg i.v., after 2 min",−14.1 ± 2.1 %
same,"Mean blood flow accelaration (aortic), change from basal level","[2]; 1.0 mg/kg i.v., after 2 min",± 8.6 +3.8%
same,"Mean blood pressure, change from basal level","[2]; 1.0 mg/kg i.v., after 2 min",+0.6 ± 2.7%
same,"Stroke volume, change from basal level","[2]; 1.0 mg/kg i.v., after 2 min",+19.3 ± 4.6 %
same,"Cardiac volume, change from basal level","[2]; 1.0 mg/kg i.v., after 5 min",+1.7 ± 6.8%
same,"Heart rate, change from basal level","[2]; 1.0 mg/kg i.v., after 5 min",−10.6 ± 1.5 %
same,"Mean blood flow accelaration (aortic), change from basal level","[2]; 1.0 mg/kg i.v., after 5 min",+13.6 ± 5.7%
same,"Mean blood pressure, change from basal level","[2]; 1.0 mg/kg i.v., after 5 min",−3.8 ± 3.4%
same,"Stroke volume, change from basal level","[2]; 1.0 mg/kg i.v., after 5 min",+13.8 ± 7.8%
same,"Cardiac volume, change from basal level","[2]; 1.0 mg/kg i.v., after 10 min",−1.3 ± 6.8%
same,"Heart rate, change from basal level","[2]; 1.0 mg/kg i.v., after 10 min",−7.1 ± 1.0 %
same,"Mean blood flow accelaration (aortic), change from basal level","[2]; 1.0 mg/kg i.v., after 10 min",+9.6 ± 3.9 %
same,"Mean blood pressure, change from basal level","[2]; 1.0 mg/kg i.v., after 10 min",−6.8 ± 2.5 %
same,"Stroke volume, change from basal level","[2]; 1.0 mg/kg i.v., after 10 min",+5.9 ± 6.3%
same,"Cardiac volume, change from basal level","[2]; 1.0 mg/kg i.v., after 20 min",−0.2 ± 3.8%
same,"Heart rate, change from basal level","[2]; 1.0 mg/kg i.v., after 20 min",−4.2 ± 1.9%
same,"Mean blood flow accelaration (aortic), change from basal level","[2]; 1.0 mg/kg i.v., after 20 min",+13.1 ± 5.0 %
same,"Mean blood pressure, change from basal level","[2]; 1.0 mg/kg i.v., after 20 min",−1.9 ± 2.9%
same,"Stroke volume, change from basal level","[2]; 1.0 mg/kg i.v., after 20 min",+4.4 ± 4.5%
same,"Cardiac volume, change from basal level","[2]; 1.0 mg/kg i.v., after 30 min",−2.5 ± 5.1%
same,"Heart rate, change from basal level","[2]; 1.0 mg/kg i.v., after 30 min",−2.3 ± 3.5%
same,"Mean blood flow accelaration (aortic), change from basal level","[2]; 1.0 mg/kg i.v., after 30 min",+3.9 ± 2.0%
same,"Mean blood pressure, change from basal level","[2]; 1.0 mg/kg i.v., after 30 min",−2.7 ± 2.9%
same,"Stroke volume, change from basal level","[2]; 1.0 mg/kg i.v., after 30 min",+0.7 ± 6.7%
same,"Cardiac volume, change from basal level",[2]; [7],+17.6 ± 8.2%
same,"Heart rate, change from basal level",[2]; [7],−15.4 ± 2.7 %
same,"Mean blood flow accelaration (aortic), change from basal level",[2]; [7],+14.8 ± 8.8%
same,"Mean blood pressure, change from basal level",[2]; [7],−1.6 ± 7.3%
same,"Stroke volume, change from basal level",[2]; [7],+34.21 ± 0.6 %
